Experimental data: patent EP4417602A1, “SUBSTITUTED PYRAZOLE CARBOXAMIDES, SALTS THEREOF AND THEIR USE AS HERBICIDALLY ACTIVE SUBSTANCES” (Bayer AG, priority 2023, dated 2024)

Tests used:
DIGSA [1] = assay: A. Herbicidal pre-emergence action on harmful plants (Tables A); assay type: in vivo, Digitaria sanguinalis
Summary of the method: (§1)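 Greenhouse pre-emergence test: compound applied to the soil surface at 1280 g/ha or below, and herbicidal effect rated visually at ca. 3 weeks on a 0–100% scale against untreated plants.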

LOLRI = assay: as above; assay type: in vivo, Lolium rigidum; settings: visual grading after ca. 3 weeks vs untreated controls, 100% = plants have died off, 0% = as control plants
Summary of the method: as §1

ECHCG [2] = assay: as above; assay type: in vivo, Echinochloa crus-galli; settings: visual grading after ca. 3 weeks vs untreated controls, 100% = plants have died off, 0% = as control plants
Summary of the method: as §1

MATIN [3] = assay: B. Herbicidal post-emergence action on harmful plants (Tables B); assay type: in vivo, Matricaria inodora; settings: application rate 1280 g/ha; Table B4a
Experimental: (§2) Seeds of mono- and dicotyledonous weed plants were placed in plastic pots in sandy loam soil (doubly sown with in each case one species of mono- or dicotyledonous weed plants per pot), covered with soil and cultivated in a greenhouse under controlled growth conditions. 2 to 3 weeks after sowing, the test plants were treated at the one-leaf stage. The compounds of the invention, formulated in the form of wettable powders (WP) or as emulsion concentrates (EC), were applied onto the green parts of the plants as aqueous suspension or emulsion with addition of 0.5% additive at a water application rate of 600 liters per hectare (converted). After the test plants had been kept in the greenhouse under optimum growth conditions for about 3 weeks, the activity of the preparations was rated visually in comparison to untreated controls. For example, 100% activity = the plants have died, 0% activity = like control plants. Tables B1 to B12, below, show the effects of selected compounds of the general formula (I) according to table 1 on various harmful plants and an application rate corresponding to 1280 g/ha or below obtained by the experimental procedure mentioned above. Table B1a: post-emergence activity at 1280g/ha against ABUTH in %

ALOMY [4] = assay: A. Herbicidal pre-emergence action on harmful plants (Tables A); assay type: in vivo, Alopecurus myosuroides
Summary of the method: as §1

MATIN [5] = assay: as above; assay type: in vivo, Matricaria inodora; settings: visual grading after ca. 3 weeks vs untreated controls, 100% = plants have died off, 0% = as control plants
Summary of the method: as §1

SETVI [6] = assay: as above; assay type: in vivo, Setaria viridis; settings: visual grading after ca. 3 weeks vs untreated controls, 100% = plants have died off, 0% = as control plants
Summary of the method: as §1

POAAN [7] = assay: as above; assay type: in vivo, Poa annua
Summary of the method: as §1

STEME = assay: as above; assay type: in vivo, Stellaria media; settings: visual grading after ca. 3 weeks vs untreated controls, 100% = plants have died off, 0% = as control plants
Summary of the method: as §1

POAAN [8] = assay: B. Herbicidal post-emergence action on harmful plants (Tables B); assay type: in vivo, Poa annua; settings: application rate 1280 g/ha; Table B7a
Summary of the method: (§3)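 Activity was scored visually as % damage (100% = dead, 0% = like untreated) about 3 weeks after treatment. Plants at the one-leaf stage, 2-3 weeks old, were sprayed with WP/EC formulations plus 0.5% additive (600 L/ha water, up to 1280 g/ha). Plants were grown in sandy loam in a greenhouse.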

SETVI [9] = assay: as above; assay type: in vivo, Setaria viridis; settings: application rate 1280 g/ha; Table B5
Experimental: as §2

DIGSA [10] = assay: as above; assay type: in vivo, Digitaria sanguinalis; settings: application rate 1280 g/ha; Table B12a
Experimental: as §2

ABUTH = assay: as above; assay type: in vivo, Abutilon theophrasti; settings: application rate 1280 g/ha; Table B1a
Experimental: as §2

ALOMY [11] = assay: as above; assay type: in vivo, Alopecurus myosuroides; settings: application rate 1280 g/ha; Table B9a
Experimental: as §2

VERPE = assay: as above; assay type: in vivo, Veronica persica; settings: application rate 1280 g/ha; Table B11a
Summary of the method: as §3

ECHCG [12] = assay: as above; assay type: in vivo, Echinochloa crus-galli; settings: application rate 1280 g/ha; Table B2a
Summary of the method: as §3

BRSNW [13] = assay: D. Pre-emergence effects on crop plants (Tables D); assay type: in vivo, Brassica napus; settings: crop plant
Excerpt: (§4) Seeds of mono- and dicotyledonous weed plants and crop plants were sown, in plastic or organic planting pots, in sandy loam and covered with soil. The compounds according to the invention, formulated in the form of wettable powders (WP) or as emulsifiable concentrates (EC), were applied to the surface of the covering soil as aqueous suspension or emulsion, with the addition of 0.5% of an additive, at an application rate of 6001 of water/ha (converted).
(§5) Following treatment, the pots were placed in a greenhouse and kept under optimum growth conditions for the test plants. The visual grading of the damage to the test plants was carried out after ca. 3 weeks in comparison to untreated controls (herbicidal effect in percent (%): 100% effect = plants have died off, 0% effect = as control plants).
(§6) Tables D1 to D5 below show the effects of various compounds of the general formula (I) according to Table 1 on various crop plants and an application rate corresponding to 320 g/ha or below obtained by the experimental procedure mentioned above in Biological Examples, Section C. Table D1a: pre-emergence activity at 320g/ha against ZEAMX in %

ZEAMX [14] = assay: D. Pre-emergence effects on crop plants (Tables D); assay type: in vivo, Zea mays; settings: crop plant
Excerpt: as §4, §5, §6

TRZAS [15] = assay: D. Pre-emergence effects on crop plants (Tables D); assay type: in vivo, Triticum aestivum; settings: crop plant
Excerpt: as §4, §5, §6

GLXMA [16] = assay: D. Pre-emergence effects on crop plants (Tables D); assay type: in vivo, Glycine max; settings: crop plant
Excerpt: as §4, §5, §6

BRSNW [17] = assay: F. Post-emergence effects on crop plants (Tables F); assay type: in vivo, Brassica napus; settings: application rate 320 g/ha, crop plant
Excerpt: (§7) Seeds of mono- and dicotyledonous weed plants and crop plants were sown, in plastic or organic planting pots, in sandy loam, covered with soil and grown in a greenhouse under controlled growth conditions. 2 to 3 weeks after sowing, the test plants were sprayed in the single-leaf stage. The compounds according to the invention, formulated in form of wettable powders (WP) or as emulsifiable concentrates (EC), were sprayed onto the green plant parts as aqueous suspension or emulsion, with the addition of 0.5% of an additive, at an application rate of 6001 of water/ha (converted). The test plants were placed in the greenhouse for ca. 3 weeks under optimum growth conditions, and then the effect of the preparations was assessed visually in comparison with untreated controls (herbicidal effect in percent (%): 100% effect = plants have died off, 0% effect = as control plants). Tables F1 to F5 below show the effects of selected compounds of the general formula (I) according to table 1 on various crop plants and an application rate corresponding to 320 g/ha or below obtained by the experimental procedure mentioned above. Table […]: post-emergence activity at 320g/ha against ZEAMX in %

TRZAS [18] = assay: as above; assay type: in vivo, Triticum aestivum; settings: crop plant
Excerpt: as §7

ZEAMX [19] = assay: as above; assay type: in vivo, Zea mays; settings: crop plant
Excerpt: as §7

GLXMA [20] = assay: as above; assay type: in vivo, Glycine max; settings: application rate 320 g/ha, crop plant
Excerpt: as §7

[21] = application rate 1280 g/ha, Table A12a
[22] = application rate 1280 g/ha, Table A9a
[23] = application rate 320 g/ha, Table A7b
[24] = application rate 1280 g/ha, visual grading after ca. 3 weeks vs untreated controls, 100% = plants have died off, 0% = as control plants

## COCc1nn(C)cc1C(=O)N1CCCC1Cc1cccc(F)c1F (single isomer, unassigned) [Example I-088]
DIGSA [1]; application rate 80 g/ha, Table A12c
  pre-emergence activity against DIGSA: 100%
DIGSA [1]; application rate 320 g/ha, Table A12b
  pre-emergence activity against DIGSA: 100%
DIGSA [1]; [21]
  pre-emergence activity against DIGSA: 100%
LOLRI; application rate 80 g/ha
  pre-emergence activity against LOLRI: 90%
LOLRI; application rate 320 g/ha
  pre-emergence activity against LOLRI: 100%
LOLRI; application rate 1280 g/ha
  pre-emergence activity against LOLRI: 100%
ECHCG [2]; application rate 80 g/ha
  pre-emergence activity against ECHCG: 90%
ECHCG [2]; application rate 320 g/ha
  pre-emergence activity against ECHCG: 90%
ECHCG [2]; application rate 1280 g/ha
  pre-emergence activity against ECHCG: 100%
MATIN [3]
  post-emergence activity against MATIN: 90%
ALOMY [4]; application rate 320 g/ha, Table A9b
  pre-emergence activity against ALOMY: 90%
ALOMY [4]; [22]
  pre-emergence activity against ALOMY: 100%
MATIN [5]; application rate 80 g/ha
  pre-emergence activity against MATIN: 90%
MATIN [5]; application rate 320 g/ha
  pre-emergence activity against MATIN: 90%
MATIN [5]; application rate 1280 g/ha
  pre-emergence activity against MATIN: 90%
SETVI [6]; application rate 80 g/ha
  pre-emergence activity against SETVI: 90%
SETVI [6]; application rate 320 g/ha
  pre-emergence activity against SETVI: 100%
SETVI [6]; application rate 1280 g/ha
  pre-emergence activity against SETVI: 100%
POAAN [7]; application rate 80 g/ha, Table A7c
  pre-emergence activity against POAAN: 90%
POAAN [7]; [23]
  pre-emergence activity against POAAN: 100%
POAAN [7]; [24]
  pre-emergence activity against POAAN: 100%
STEME; application rate 80 g/ha
  pre-emergence activity against STEME: 90%
STEME; application rate 320 g/ha
  pre-emergence activity against STEME: 90%
STEME; application rate 1280 g/ha
  pre-emergence activity against STEME: 90%
POAAN [8]
  post-emergence activity against POAAN: 90%
SETVI [9]
  post-emergence activity against SETVI: 90%
DIGSA [10]
  post-emergence activity against DIGSA: 90%

## Cn1cc(C(=O)N2CCCC2Cc2cc(F)ccc2F)c(COc2ccccc2)n1 (racemic) [Example I-010]
ABUTH
  post-emergence activity against ABUTH: 90%
ALOMY [11]
  post-emergence activity against ALOMY: 90%
DIGSA [1]; [21]
  pre-emergence activity against DIGSA: 90%
VERPE
  post-emergence activity against VERPE: 90%
ECHCG [12]
  post-emergence activity against ECHCG: 90%
ALOMY [4]; [22]
  pre-emergence activity against ALOMY: 100%
POAAN [7]; [23]
  pre-emergence activity against POAAN: 90%
POAAN [7]; [24]
  pre-emergence activity against POAAN: 100%
STEME; application rate 1280 g/ha
  pre-emergence activity against STEME: 90%

## Cn1cc(C(=O)N2CCCC2Cc2ccccc2F)c(COCC2COC2)n1 (racemic) [Example I-091]
BRSNW [13]; application rate 80 g/ha
  pre-emergence activity against BRSNW in %: 0%
BRSNW [13]; application rate 320 g/ha
  pre-emergence activity against BRSNW in %: 0%
ZEAMX [14]; application rate 80 g/ha, Table D1b
  pre-emergence activity against ZEAMX: 0%
ZEAMX [14]; application rate 320 g/ha, Table D1a
  pre-emergence activity against ZEAMX: 0%
TRZAS [15]; application rate 80 g/ha, Table D2b
  pre-emergence activity against TRZAS: 0%
TRZAS [15]; application rate 320 g/ha, Table D2a
  pre-emergence activity against TRZAS: 0%
GLXMA [16]; application rate 80 g/ha, Table D4b
  pre-emergence activity against GLXMA: 0%
GLXMA [16]; application rate 320 g/ha, Table D4a
  pre-emergence activity against GLXMA: 0%
BRSNW [17]
  post-emergence activity against BRSNW in %: 0%
TRZAS [18]; application rate 80 g/ha
  post-emergence activity against TRZAS in %: 0%
TRZAS [18]; application rate 320 g/ha
  post-emergence activity against TRZAS in %: 0%
ZEAMX [19]; application rate 80 g/ha
  post-emergence activity against ZEAMX in %: 0%
ZEAMX [19]; application rate 320 g/ha
  post-emergence activity against ZEAMX in %: 0%
GLXMA [20]
  post-emergence activity against GLXMA in %: 0%
